This note sets out measurements from ChEMBL document CHEMBL3102804, “Synthesis, anticancer activity and DNA-binding properties of novel 4-pyrazolyl-1,8-naphthalimide derivatives” (Bioorg Med Chem Lett, 2014).

Each structure is given as a SMILES string. The source made the active and inactive calls. The calls are words filed in the database; no cut-off is given here. Where only a bound is given, the exact number is not on record here.

In experiment [1] the test system is MCF7. Kind of experiment: Cytotoxicity against human MCF7 cells assessed as cell viability after 48 hrs by MTT assay. In kind it is functional, cell-based. To be noted: MCF7, 48 h.
Experiment [2] relates to HeLa. Kind of experiment: Cytotoxicity against human HeLa cells assessed as cell viability after 48 hrs by MTT assay. In kind it is functional, cell-based. On the technique in general: Formazan colour is commonly taken as a measure of viable cells.
The test system of experiment [3] is A549. Kind of experiment: Cytotoxicity against human A549 cells assessed as cell viability after 48 hrs by MTT assay. In kind it is functional, cell-based. Conditions: A549, 48 h.
In experiment [4] the test system is DNA. Kind of experiment: Binding affinity to calf thymus DNA assessed as change in melting temperature at 5 uM by UV spectrophotometric analysis. The format is nucleic-acid assay. Conditions: Bos taurus.
Experiment [5] deals with DNA. Kind of experiment: Binding affinity to calf thymus DNA assessed as melting temperature at 5 uM by UV spectrophotometric analysis (reference value: 59.7 degC). The format is nucleic-acid assay. To be noted: Bos taurus.
In experiment [6] the test system is MCF7. Kind of experiment: Potency index, ratio of amonafide IC50 to compound IC50 for human MCF7 cells. In kind it is functional.
Experiment [7] deals with HeLa. Kind of experiment: Potency index, ratio of amonafide IC50 to compound IC50 for human HeLa cells. The format is functional.
Experiment [8] has as its system A549. Kind of experiment: Potency index, ratio of amonafide IC50 to compound IC50 for human A549 cells. In kind it is functional.
Experiment [9] deals with DNA. Kind of experiment: Binding affinity to calf thymus DNA assessed as hypochromicity/bathochromic shift after 120 mins by UV-vis absorption spectra analysis. In kind it is nucleic-acid assay. To be noted: Bos taurus.
Experiment [10] deals with DNA. Kind of experiment: Binding affinity to calf thymus DNA by fluorescent spectra analysis. In kind it is nucleic-acid assay. Conditions: Bos taurus.
The subject of experiment [11] is DNA. Kind of experiment: Binding affinity to calf thymus DNA at compound to DNA ratio 0.1 to 0.5 by CD spectra analysis. The format is nucleic-acid assay. Conditions: Bos taurus.
Experiment [12] relates to DNA. Kind of experiment: Binding affinity to calf thymus DNA at compound to DNA ratio >= 2 by CD spectra analysis. The format is nucleic-acid assay. To be noted: Bos taurus.

For the molecule `CN(C)CCN1C(=O)c2cccc3c(-n4cc(-c5ccc(Br)cc5)cn4)ccc(c23)C1=O`, the IC50 is 10.7 µM with MCF7 [1], 3.47 µM in the experiment with HeLa [2] and more than 50 µM in the experiment on A549 [3].
For `CN(C)CCN1C(=O)c2cccc3c(-n4cc(-c5ccccc5)cn4)ccc(c23)C1=O`, the IC50 in the experiment with MCF7 [1] turned out to be 1.58 µM; with HeLa [2] it was 6.5 µM; in the experiment with A549 [3], 8.52 µM.
The matching figures for `CN(C)CCN1C(=O)c2cccc3c(-n4cc(-c5ccc(C(F)(F)F)cc5)cn4)ccc(c23)C1=O`: 4.26 µM, 13.3 µM and 25 µM.
As for `COc1ccc(-c2cnn(-c3ccc4c5c(cccc35)C(=O)N(CCN(C)C)C4=O)c2)cc1`, the IC50 was found to be 2.62 µM in the experiment with MCF7 [1], 4.99 µM in the experiment with HeLa [2] and 7.69 µM in the experiment on A549 [3].
Turning to `CN(C)CCN1C(=O)c2cccc3c(-n4cc(-c5ccc(F)cc5)cn4)ccc(c23)C1=O`, the IC50 with MCF7 [1] is 1.56 µM; in the experiment on HeLa [2], 3.1 µM; with A549 [3], 24 µM.
Consider `CN(C)CCN1C(=O)c2cccc3c(-n4cc(-c5cc(C(F)(F)F)cc(C(F)(F)F)c5)cn4)ccc(c23)C1=O`, for which the IC50 was determined as 3.39 µM with MCF7 [1], 16.6 µM in the experiment on HeLa [2] and 25.4 µM in the experiment with A549 [3].
On to `COc1cc(-c2cnn(-c3ccc4c5c(cccc35)C(=O)N(CCN(C)C)C4=O)c2)cc(OC)c1OC`, for which the ΔTm in the experiment with DNA [4] is 1.8 °C. In addition, the Tm in the experiment on DNA [5] stood at 61.5 °C. Also, the IC50 with MCF7 [1] turned out to be 0.51 µM; with HeLa [2], 3.09 µM; in the experiment with A549 [3], 5.14 µM. Further, the “Ratio IC50” value in the experiment on MCF7 [6] stood at 3.3; with HeLa [7], 2.2; with A549 [8], 2.5. The Kb in the experiment with DNA [9] was determined as 1.01 ×10⁴ /M. The Kbapp in the experiment on DNA [10] is 1.04 ×10⁴ /M. The result in the experiment on DNA [11] and in the experiment with DNA [12] was Active.
For `CN(C)CCN1C(=O)c2cccc3c(-n4cccn4)ccc(c23)C1=O`, the IC50 is 2.72 µM with MCF7 [1], 9.47 µM in the experiment on HeLa [2] and more than 50 µM in the experiment with A549 [3].
For the molecule `COc1cccc(-c2cnn(-c3ccc4c5c(cccc35)C(=O)N(CCN(C)C)C4=O)c2)c1`, the IC50 in the experiment with MCF7 [1] was 1.99 µM; in the experiment on HeLa [2], 14.6 µM; in the experiment with A549 [3] it was 12 µM.
In the same order, the values of `CN(C)CCN1C(=O)c2cccc3c(-n4cc(-c5ccc(Cl)cc5)cn4)ccc(c23)C1=O` are 4.24 µM, 10.6 µM and 17.2 µM.
For `Cc1ccc(-c2cnn(-c3ccc4c5c(cccc35)C(=O)N(CCN(C)C)C4=O)c2)cc1`, the IC50 in the experiment on MCF7 [1] came out at 17 µM; in the experiment on HeLa [2], 4.6 µM; with A549 [3], 5.09 µM. Further, in the experiment with A549 [8], the “Ratio IC50” value is recorded as 2.6.
Regarding `CN(C)CCN1C(=O)c2cccc3cc(N)cc(c23)C1=O` [AMONAFIDE], in the experiment on HeLa [2], the IC50 amounted to 6.71 µM.
`COc1ccc(-c2cnn(-c3ccc4c5c(cccc35)C(=O)N(CCN(C)C)C4=O)c2)cc1OC`: the figures for the IC50 in the experiment on MCF7 [1], with HeLa [2] and in the experiment with A549 [3] were 0.79 µM, 3.5 µM and 11.8 µM, respectively.

What is called IC50 is the concentration that gives 50% inhibition. Usually ΔTm stands for the change in melting temperature against a reference sample.
